Measured values from patent US7026281B1, “Antagonistic analogs of GH-RH inhibiting IGF-I and -II” (The Administrators of the Tulane Educational Fund, priority 1998, dated 2006).
Marks after values point to notes of the source that are not given here. Square brackets hold non-standard residues; d marks the D form. Peptide text beside a SMILES is read from it. * marks the point of attachment. Phe(4-Cl) = N[C@@H](Cc1ccc(Cl)cc1)C(=O)O; hArg = N=C(N)NCCCC[C@H](N)C(=O)O; Nle = CCCC[C@H](N)C(=O)O; Abu = CC[C@H](N)C(=O)O; PhAc = O=C(Cc1ccccc1)*

Legend:
[1] = biological target: T1, rat pituitary GH-RH receptors (Rattus norvegicus, UniProt Q02644); assay: GH-RH radioreceptor binding assay, rat anterior pituitary membrane homogenates; details: for Ki: competition with [His1,125I-Tyr10,Nle27]hGH-RH(1–32)NH2; for R.A. (relative affinity compared to Standard antagonist): ratio of Ki values
T1 construct: from tissue; host or cells: anterior pituitary of male Sprague-Dawley rats, crude membrane homogenates
T1 sequence (Q02644 23-464): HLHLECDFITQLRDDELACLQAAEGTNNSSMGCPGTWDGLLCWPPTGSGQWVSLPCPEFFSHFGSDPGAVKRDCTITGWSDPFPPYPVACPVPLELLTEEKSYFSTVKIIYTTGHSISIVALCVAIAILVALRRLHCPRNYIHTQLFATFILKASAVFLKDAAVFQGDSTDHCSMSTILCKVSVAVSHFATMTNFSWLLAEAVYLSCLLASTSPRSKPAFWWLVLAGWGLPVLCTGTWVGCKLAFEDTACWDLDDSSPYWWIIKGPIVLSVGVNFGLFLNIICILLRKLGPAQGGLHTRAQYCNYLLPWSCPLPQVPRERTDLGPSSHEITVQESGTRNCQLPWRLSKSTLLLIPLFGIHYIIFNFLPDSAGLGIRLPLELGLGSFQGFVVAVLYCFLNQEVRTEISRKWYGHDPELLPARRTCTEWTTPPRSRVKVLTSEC
Method in brief: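 Antagonists competed with [His^1,^125I-Tyr^10,Nle^27]hGH-RH(1–32)NH2 for binding to crude anterior pituitary membranes from male Sprague-Dawley rats, with γ-counting of the pellet. Ki came from Munson–Rodbard analysis. Relative affinity is the Ki of the test antagonist divided by the Ki of standard [Ac-Tyr^1,D-Arg^2]hGH-RH(1–29)NH2.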

[2] = system: HT-29 human colon cancers; assay: HT-29 human colon cancer xenografts in nude mice; type: in vivo; details: 20 μg daily sc., 6 weeks; for Final tumor volume (mm^3) / Tumor weight: nude mice
Experimental: HT-29 human colon cancers were transplanted sc. into male nude mice. 19 days after transplantation, the mice were divided into groups of 10 animals each, and the treatment was started. The mice received single daily injections of various GH-RH antagonists sc. at 20 μg dose per day for 6 weeks. Tumors were measured regularly, and tumor volume was calculated. The mice were sacrificed at the end of experiment and tumor weights were measured.

[3] = system: GH release stimulated by hGH-RH(1–29)NH2; assay: In vivo inhibition of serum GH response in rats; set-up: species or system rat; details: for Inhibition of the GH release stimulated by hGH-RH(1–29)NH2 (in words): 80 μg/kg i.v., rats
Method in brief: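 Male Sprague-Dawley rats (200–250 g) under Nembutal received antagonist at 80 μg/kg i.v., then GH-RH(1–29)NH2 at 3 μg/kg after 5, 15, 30 or 60 min; controls received vehicle (5.5% mannitol). GH was measured by RIA before antagonist and 5 min after GH-RH, and inhibition was calculated as […].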

[4] = system: hGH-RH(1–29)NH2 induced GH release; assay: Inhibition of GH release in superfused rat pituitary system; type: cell-based; details: antagonist 30 nM; for Inhibition of GH release (%) 30 min: 1 nM hGH-RH(1–29)NH2 30 min later; for Inhibition of GH release (%) 60 min: 1 nM hGH-RH(1–29)NH2 60 min later; for Inhibition of GH release (%) 90 min: 1 nM hGH-RH(1–29)NH2 90 min later; for Inhibition of GH release (%) 120 min: 1 nM hGH-RH(1–29)NH2 120 min later; for Inhibition of GH release (%) 0 min: 1 nM hGH-RH(1–29)NH2 at 0 min
Method in brief: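 Superfused rat pituitary cells preincubated 9 min with peptide, then challenged for 3 min with 1 nM hGH-RH(1–29)NH2 at 0, 30, 60, 90 and 120 min. Rat GH measured by double-antibody RIA; net integral GH responses expressed as percent of the original 1 nM GH-RH-induced response.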

IGF-II = details: same cancer cell lines in vitro; cited from earlier work
[5] = system: mammary (MDA-MB-468, ZR-75-1), prostatic (PC-3 and DU-145), and pancreatic (MiaPaCa-2, SW-1990 and Capan-2) cancer cell lines; details: MDA-MB-468, ZR-75-1, PC-3, DU-145, MiaPaCa-2, SW-1990, Capan-2; cited from earlier work
[6] = system: PC-3 human prostate cancer xenografts; assay: PC-3 human prostate cancer xenografts in nude mice; type: in vivo; details: 20 μg daily s.c., 21 days
Experimental: Male nude mice were implanted s.c. with 3 mm^3 pieces of PC-3 human hormone-independent prostate cancer tissue into both flanks. When tumors reached a volume of approx. 40–50 mm^3 the mice were divided into 3 experimental groups. The first and second groups were treated with peptides Peptide 3 and MZ-5-156, respectively, in single daily s.c. injections of 20 μg for 21 days, while the third group served as control. Tumor volumes were measured at weekly intervals, tumor weights were measured at the end of experiment.

[7] = system: MDA-MB-468 human breast cancer xenografts; assay: MDA-MB-468 human breast cancer xenografts in nude mice; type: in vivo; details: 20 μg daily s.c., 5 weeks
Experimental: Nude mice bearing MDA-MB-468 hormone-independent human breast cancer xenografts were divided into groups of 10 animals each. The treated groups received single daily s.c. injections of 20 μg of GH-RH antagonists. One group was treated with Peptide 1, a second group was treated with MZ-5-156 for comparison. The control group was injected with the vehicle solvent. The treatment was continued for 5 weeks. Tumors were measured once a week and tumor volume was calculated. The mice were sacrificed at the end of experiment and tumor weights were measured.

[8] = system: Estrogen independent MXT mouse mammary tumors; assay: MXT mouse mammary tumors in BDF mice; type: in vivo; details: 20 μg per day
Experimental: Estrogen independent MXT tumors were transplanted sc. to female BDF mice. One day after transplantation, the mice were divided into groups of 10 animals each, and the treatment was started. The mice in groups 1, 2, 3, and 4 received single injections daily of various GH-RH antagonists sc. at 20 μg dose per day for 18 days. In groups 5 and 6, the peptides were administered by Alzet osmotic pumps releasing a daily amount of 20 μg peptide. Tumors were measured regularly, and tumor volume was calculated. The mice were sacrificed on day 18 and tumor weights were measured.

[9] = antagonist 80 μg/kg i.v. 5 min before GH-RH
[10] = antagonist 80 μg/kg i.v. 15 min before GH-RH
[11] = antagonist 80 μg/kg i.v. 15 min before GH-RH 3 μg/kg
[12] = antagonist 80 μg/kg i.v. 30 min before GH-RH
[13] = antagonist 80 μg/kg i.v. 30 min before GH-RH 3 μg/kg
[14] = antagonist 80 μg/kg i.v. 60 min before GH-RH
[15] = antagonist 80 μg/kg i.v. 60 min before GH-RH 3 μg/kg
[16] = rGH=GHblood1/GHblood0, antagonist 80 μg/kg i.v. 5 min before GH-RH 3 μg/kg

Molecule: CCCC[C@H](NC(=O)[C@@H](NC(=O)[C@H](CC(=O)O)NC(=O)[C@H](CCC(N)=O)NC(=O)[C@H](CC(C)C)NC(=O)[C@H](CC(C)C)NC(=O)[C@H](CCCCN)NC(=O)[C@H](CCCNC(=N)N)NC(=O)[C@H](C)NC(=O)[C@H](CO)NC(=O)[C@H](CC(C)C)NC(=O)[C@H](CCC(N)=O)NC(=O)[C@H](CC)NC(=O)[C@H](CC(C)C)NC(=O)[C@@H](NC(=O)[C@H](CCCCN)NC(=O)[C@H](CCCNC(=N)N)NC(=O)[C@H](Cc1ccc(O)cc1)NC(=O)[C@H](CCCNC(=N)N)NC(=O)[C@H](CC(N)=O)NC(=O)[C@@H](NC(=O)[C@H](Cc1ccc(Cl)cc1)NC(=O)[C@@H](NC(=O)[C@H](C)NC(=O)[C@H](CC(=O)O)NC(=O)[C@@H](CCCNC(=N)N)NC(=O)[C@H](Cc1ccc(O)cc1)NC(=O)Cc1ccccc1)[C@@H](C)CC)[C@@H](C)O)C(C)C)[C@@H](C)CC)C(=O)N[C@@H](CO)C(=O)N[C@H](CCCNC(=N)N)C(N)=O [Peptide 9, [PhAc^0, D-Arg^2, Phe(pCl)^6, Arg^9, Abu^15, Nle^27, D-Arg^29]hGH-RH(1–29)NH2] (PhAc-Y[dR]DAI[Phe(4-Cl)]TNRYRKVL[Abu]QLSARKLLQDI[Nle]S[dR]-NH2)
- Ki [1]: 0.058 nM
- R.A. (relative affinity compared to Standard antagonist) [1]: 51
- Inhibitory effect on HT-29 human colon cancers (in words) [2]: smaller but still significant inhibition
- Final tumor volume (mm^3) [2]: 1194 ± 506* mm^3
- Tumor weight [2]: 1383 ± 576 mg
- Inhibition of the GH release stimulated by hGH-RH(1–29)NH2 (in words) [3]: strong and long-lasting inhibition
- Relative inhibition % of GH response [3, 9]: 75%
- Relative inhibition % of GH response [3, 10]: 59%
- GH response mean ± S.E.M. [3, 11]: 3.85 ± 0.50
- Relative inhibition % of GH response [3, 12]: 67%
- GH response mean ± S.E.M. [3, 13]: 3.34 ± 0.30
- Relative inhibition % of GH response [3, 14]: 10%
- GH response mean ± S.E.M. [3, 15]: 7.32 ± 1.16
- GH response mean ± S.E.M. [3, 16]: 2.75 ± 0.75
- Inhibition of GH release (%) 30 min [4]: 87%
- Inhibition of GH release (%) 60 min [4]: 79%
- Inhibition of GH release (%) 90 min [4]: 72%
- Inhibition of GH release (%) 120 min [4]: 59%
- Inhibition of GH release (%) 0 min [4]: 91%

Molecule: [Ibu^0, Tyr^1, D-Arg^2, Abu^15, Nle^27]hGH-RH(1–28) Agm [MZ-4-71, reference compound]
- Inhibitory effect on HT-29 human colon cancers (in words) [2]: only little nonsignificant effect
- Final tumor volume (mm^3) [2]: 1953 ± 400 mm^3
- Tumor weight [2]: 2189 ± 458 mg
- Expression of IGF-II mRNA in the cells and concentration of IGF-II secreted into the culture medium (IGF-II): reduced
- Rate of proliferation of cancer cell lines in vitro [5]: significantly inhibited

Molecule: [PhAc^0, D-Arg^2, Abu^15, Nle^27]hGH-RH(1–28) Agm [MZ-5-156, reference compound]
- Inhibition in tumor volume [6]: 52%
- Inhibition in tumor weight [6]: 46%
- Final tumor volume (mm^3) ([6]; nude mice): 148.9 ± 41 mm^3
- Tumor weight ([6]; nude mice): 104.3 ± 27.2 mg
- Final tumor volume (mm^3) ([7]; nude mice): 104.4 ± 32.2** mm^3
- Tumor weight ([7]; nude mice): 77.7 ± 31.7 mg
- Number of regressed tumors ([7]; groups of 10): 3
- Inhibitory effect on HT-29 human colon cancers (in words) [2]: equally strong inhibitory effect
- Final tumor volume (mm^3) [2]: 908 ± 195* mm^3
- Tumor weight [2]: 1012 ± 174 mg
- Expression of IGF-II mRNA in the cells and concentration of IGF-II secreted into the culture medium (IGF-II): reduced
- Inhibitory effect on MXT mouse mammary cancers (in words) ([8]; 18 days): significant inhibition of tumor growth
- Tumor volume (mm^3) On day 14 ([8]; single daily sc. injections): 2717 ± 773 mm^3
- Tumor volume (mm^3) On day 18 ([8]; single daily sc. injections): 5368 ± 408* mm^3
- Tumor weights ([8]; single daily sc. injections, day 18): 4885 ± 480 mg
- Number of surviving mice ([8]; single daily sc. injections, groups of 10): 4
- Rate of proliferation of cancer cell lines in vitro [5]: significantly inhibited

Molecule: CCCC[C@H](NC(=O)[C@@H](NC(=O)[C@H](CC(=O)O)NC(=O)[C@H](CCC(N)=O)NC(=O)[C@H](CC(C)C)NC(=O)[C@H](CC(C)C)NC(=O)[C@H](CCCCN)NC(=O)[C@H](CCCNC(=N)N)NC(=O)[C@H](C)NC(=O)[C@H](CO)NC(=O)[C@H](CC(C)C)NC(=O)[C@H](CCC(N)=O)NC(=O)[C@H](CC)NC(=O)[C@H](CC(C)C)NC(=O)[C@@H](NC(=O)[C@H](CCCCN)NC(=O)[C@H](CCCNC(=N)N)NC(=O)[C@H](Cc1ccc(O)cc1)NC(=O)[C@H](CO)NC(=O)[C@H](CC(N)=O)NC(=O)[C@@H](NC(=O)[C@H](Cc1ccc(Cl)cc1)NC(=O)[C@@H](NC(=O)[C@H](C)NC(=O)[C@H](CC(=O)O)NC(=O)[C@@H](CCCNC(=N)N)NC(=O)[C@H](Cc1ccc(O)cc1)NC(=O)Cc1ccccc1)[C@@H](C)CC)[C@@H](C)O)C(C)C)[C@@H](C)CC)C(=O)N[C@H](CCCNC(=N)N)C(=O)N[C@@H](CCCCNC(=N)N)C(N)=O [Peptide 11, [PhAc^0, D-Arg^2, Phe(pCl)^6, Abu^15, Nle^27, D-Arg^28, Har^29]hGH-RH(1–29)NH2] (PhAc-Y[dR]DAI[Phe(4-Cl)]TNSYRKVL[Abu]QLSARKLLQDI[Nle][dR][hArg]-NH2)
- Ki [1]: 0.071 nM
- R.A. (relative affinity compared to Standard antagonist) [1]: 41
- Inhibitory effect on HT-29 human colon cancers (in words) [2]: only little nonsignificant effect
- Final tumor volume (mm^3) [2]: 1663 ± 610 mm^3
- Tumor weight [2]: 1849 ± 681 mg
- Inhibition of the GH release stimulated by hGH-RH(1–29)NH2 (in words) [3]: strong and long-lasting inhibition
- Relative inhibition % of GH response [3, 9]: 84%
- Relative inhibition % of GH response [3, 10]: 50%
- GH response mean ± S.E.M. [3, 11]: 13.64 ± 1.41
- Relative inhibition % of GH response [3, 12]: 40%
- GH response mean ± S.E.M. [3, 13]: 16.04 ± 4.36
- Relative inhibition % of GH response [3, 14]: 38%
- GH response mean ± S.E.M. [3, 15]: 16.61 ± 6.02
- GH response mean ± S.E.M. [3, 16]: 5.15 ± 1.11
- Inhibition of GH release (%) 30 min [4]: 89%
- Inhibition of GH release (%) 60 min [4]: 80%
- Inhibition of GH release (%) 90 min [4]: 56%
- Inhibition of GH release (%) 120 min [4]: 42%
- Inhibition of GH release (%) 0 min [4]: 96%
